Results on two molecules are retold here after US9850300B2, “Compositions and methods relating to inhibiting cancer cell growth and/or proliferation” (The Regents of the University of Michigan, priority 2013, dated 2017).

“Also recorded” adds a separate entry of the source.

Format in all cases: cell-based
Assay [1] relates to SKOV3 cells. The assay is described as follows: EGFL6-mediated cell proliferation, RGE mutation or Echistatin pretreatment. The note with it: for proliferative effect on cancer cells: RGD-to-RGE mutated EGFL6 vs EGFL6, SKOV3. The protocol: To determine if EGFL6 signaling on cancer cells is via integrin bind, an EGFL6 protein with an […] mutation (EGFL6^RGE) was generated. […] Similarly, pretreatment of SKOV3 cells with the integrin β1/β3 inhibitor Echistatin blocked both EGFL6-mediated cancer cell proliferation and the decrease in ALDH^+ percentage (FIG. 4B).
(§1) SKOV3, A2008, and A2780 were maintained in RPMI-1640, supplemented with 10% FBS with 1% Penicillin/Streptomycin, and cultured in humidified atmosphere of 5% CO2 at 37° C. For all in vitro cell culture experiments, isolated cells were allow to recover overnight following FACS, prior to treatment. Infantile Hemangioma Stem cells were maintained in EBM-2 medium with growth factor supplement cocktails in culture plates coated with fibronectin. For Echistatin and EGFL6 treatment, cells were pretreated with Echistatin (Sigma, 100 nM) for 24 hours prior to EGFL6 treatment. All transfections were performed using FuGene6 reagent (Promega) per company protocol.

Assay [2] relates to ALDH+ CSCs in SKOV3 cells. The assay is described as follows: ALDH+ cell percentage and number (ALDEFLUOR FACS). The note with it: Echistatin 100 nM pretreatment 24 hours or EGFL6 antibody 5 μg/ml, then EGFL6.
Description: It has been shown that aldehyde dehydrogenase enzymatic activity (ALDH) is an excellent marker of ovarian CSCs in SKOV3 cells and primary patient samples (see, e.g., Silva, I. A., et al. Cancer Res (2011); Landen, C. N., Jr., et al. Mol Cancer Ther 9, 3186-3199 (2010); Steg, A. D., et al. Clin Cancer Res 18, 869-881 (2012); Kryczek, I., et al. Int J Cancer 130, 29-39 (2012); Deng, S., et al. PLoS ONE 5, e10277 (2010)). The impact of EGFL6 treatment on the percentage of ALDH^+ CSCs in vitro was next assessed. […] However, given the increase in total cell numbers, the absolute ALDH^+ CSC number remained unchanged (FIG. 3Aiii). […] Human ovarian cancer ascites cells were also treated with EGFL6 in a tumor sphere assay. Once again, treatment with EGLF6 was associated with a reduction in ALDH^+ cell percentages in tumor spheres (FIG. 3B).
as §1
FACS assay was performed as previously described (see, e.g., Silva, I. A., et al. Cancer Res (2011)). Briefly, SKOV3 cells or primary ovarian tumor/ascetics cells were stained for ALDH using ALDEFLUOR kit per company protocol (Stem Cell Technologies). DAPI staining was used to exclude non-viable cells. For FACS cell sorting, equal number of ALDH and ALDH^(−) cells were collected for subsequent experiments.
EGFL6 monoclonal antibody producing hybridoma cells were maintained in RPMI medium supplemented with 10% FBS. For antibody purification, the cells were cultured in reduced FBS (5%). […]

Assay [3] relates to phosphorylation of SHP2, ERK, FAK and SRC in SKOV3 cells. The assay is described as follows: Western blot of EGFL6 mediated signal activation. The note with it: for p-SHP2 levels: treatment of ALDH+ SKOV3 cells. Here is the method: Lastly, EGFL6 mediated signal activation was evaluated. Integrin signaling has been reported to induce the […] of FAK, SRC and SHP2 among others. […] Phosphorylation of all of these proteins could be blocked with Echistatin.
Cellular signaling changes associated with EGFL6 was next examined. […] EGFL6 treatment was associated with increased p-SHP2 levels specifically in ALDH^+ cells (FIG. 4Ei). […] SHP2 phosphorylation could be blocked with Echistatin (FIG. 4Eiii) or an EGFL6-blocking antibody. SHP2 phosphorylation was associated with increased p-ERK levels (4Ei-iii).
as §1
EGFL6 monoclonal antibody producing hybridoma cells were maintained in RPMI medium supplemented with 10% FBS. For antibody purification, the cells were cultured in reduced FBS (5%). Culture supernatant was collected and cell debris was removed by centrifugation. EGFL6 antibody was pulled down using Protein G Agarose heeds, Fast Flow (Millipore), washed and eluded with 50 mM glycine PH.2.7. Antibody solution was immediately neutralized to PH 7.2-7.4 with Tris (Ph 9.0, final concentration 25 mM). NaCl was added to final concentration of 150 mM. EGFL6 antibody was applied at 5 μg/ml for in vitro cell treatment and 50 μg/mouse for in vivo treatment.
On the technique in general: In western blotting, separated proteins are transferred to a membrane and probed.

For Echistatin [reference compound], the “blockade of EGFL6-mediated cancer cell proliferation” value in assay [1] (Echistatin pretreatment, SKOV3) is recorded as “blocked”. Besides, the “blockade of EGFL6-mediated reduction in ALDH+ cell percentages” value in assay [2] is on record as “inhibited the effect of EGFL6; also recorded: blocked; also recorded: inhibits”. For the same molecule, the “blockade of EGFL6-induced phosphorylation of SHP2, FAK and SRC” value in assay [3] (Echistatin pretreatment) is listed as “blocked”. Further, in assay [3] (with EGFL6 treatment), the “blockade of EGFL6-mediated ERK phosphorylation” value was “suppressed” and the “blockade of EGFL6-mediated SHP2 phosphorylation” value is on record as “blocked; also recorded: suppressed”.

B1: EGFL6^RGE: EGFL6 protein with an RGD-to-RGE mutation of the integrin binding motif (protein)
chain: NAASARHHGLLASARQPGVCHYGTKLACCYGWRRNSKGVCEATCEPGCKFGECVGPNKCRCFPGYTGKTCSQDVNECGMKPRPCQHRCVNTHGSYKCFCLSGHMLMPDATCVNSRTCAMINCQYSCEDTEEGPQCLCPSSGLRLAPNGRDCLDIDECASGKVICPYNRRCVNTFGSYYCKCHIGFELQYISGRYDCIDINECTMDSHTCSHHANCFNTQGSFKCKCKQGYKGNGLRCSAIPENSVKEVLRAPGTIKDRIKKLLAHKNSMKKKAKIKNVTPEPTRTPTPKVNLQPFNYEEIVSRGGNSHGGKKGNEEKMKEGLEDEKREEKALKNDIEERSLRGEVFFPKVNEAGEFGLILVQRKALTSKLEHKDLNISVDCSFNHGICDWKQDREDDFDWNPADRDNAIGFYMAVPALAGHKKDIGRLKLLLPDLQPQSNFCLLFDYRLAGDKVGKLRVFVKNSNNALAWEKTTSEDEKWKTGKIQLYQGTDATKSIIFEAERGKGKTGEIAVDGVLLVSGLCPDSLLSVDD
Turning to B1, the results for the “proliferative effect on cancer cells” value in assay [1] and in assay [1] (listed as EGFL6-RGE mutant) were “eliminated the proliferative effects” and “suppressed”, respectively. In addition, the p-SHP2 levels entry in assay [3] was “did not increase”; in assay [3] (listed as EGFL6-RGE mutant), “does not increase”. Also, the p-ERK levels entry in assay [3] (treatment of ALDH+ and ALDH(−) cells) is listed as “does not increase”.
